Assay results from patent US9096832B2, “Differentiation of human embryonic stem cells” (LifeScan, Inc., priority 2007, dated 2015).
Several values for one entry are separate records, joined by “and”; a condition that tells them apart may be missing. Equal values may be shown once.

Tests used:
[1] = test system: human embryonic stem cell line H9; assay: Cells from […] differentiated on MEFs: role of Wnt-3a (real-time PCR, FACS); assay type: cell-based
Method: Cells from the human embryonic stem cell line H9 cultured on […]™ for at least five passages were seeded onto MEF feeders in ES media.
At day 3 and 5, the cultures were analyzed by real time PCR for SOX-17, SOX-7, Alpha-fetal protein (AFP), CXCR4, Brychyury (Bry), gooscecoid (GSC), HNF-3 beta, GATA4, hTERT and Oct4. AFP and SOX-7 are regarded as visceral endoderm markers while GATA4, HNF-3beta and SOX-17 represent definite endoderm markers and GSC, Bry, and CXCR4 represent markers of primitive streak. hTERT and Oct-4 are markers for self renewal and pluripotency respectively. FACS analysis was also performed at day 3 and 5.

[2] = test system: human embryonic stem cell line H9; assay: Cytokine array (RayBiotech) of cell lysates and conditioned media, Activin A +/- Wnt3a (Table VII); assay type: cell-based; set-up: Angiogenin / BDNF / BMP-4 / BMP-6 / CK beta 8-1 / Eotaxin-3 / Flt-3 Ligand / Fractalkine / GCP-2 / GDNF / GM-CSF / I-309 / IFN-gamma / IGFBP-1 / IGFBP-2 / IGFBP-4 / IL-10 / IL-13 / IL-15 / IL-1alpha / IL-1beta / IL-1ra / IL-3 / IL-5 / Leptin / MCP-1 / MIP-1-delta / NT-3 / RANTES / SCF / TGF-beta 1 / TNF-beta / Acrp30 / AgRP / AxI / bFGF: unit not given here
Method: At passage 54, cells were differentiated in the presence of 100 ng/mlActivinA+/−10 ng/mlWnt3a for 2 days in 0.5% FBS DMEM/F12. […]
Cell lysates were prepared from cells of each treatment group, with a mammalian cell lysis kit (Sigma-Aldrich,MO). Conditioned media from each treatment group was collected and concentrated. Cytokine array analysis was completed using Cytokine Array panels provided by RayBiotech, GA (http://www.raybiotech.com/). […] For each panel, positive and negative controls are also included.

[3] = Cell conditioned media, H9 day 5, samples 1,2
[4] = Cell lysate, H9 day 5, samples 1,2

Wnt-3a
role in differentiation of hES cells cultured on MEFs to definitive endoderm [1]: does not appear to play a significant role | AFP expression ([1]; Wnt-3a added to 100 ng/ml activin A): increase in the expression of AFP that increases over time | Acrp30 [2, 3]: 2,795.71 and 2,302.99 | AgRP [2, 3]: 651.26 and 482.21 | Amphiregulin [2, 3]: 619.07 and 782.60 | Angiogenin [2, 3]: 57,442.48 and 54,969.04 | Angiopoietin-2 [2, 3]: 65,959.24 and 71,664.21 | AxI [2, 3]: 610.40 and 748.34 | BDNF [2, 3]: 770.08 and 715.86 | BLC [2, 3]: 337.12 and 249.80 | BMP-6 [2, 3]: 985.70 and 670.60 | CK beta 8-1 [2, 3]: 42.78 and 75.44 | CNTF [2, 3]: 787.19 and 541.51 | EGF [2, 3]: 23,331.57 and 22,768.53 | Eotaxin-2 [2, 3]: 2,156.21 and 1,445.14 | Eotaxin-3 [2, 3]: 2,140.81 and 1,480.35 | FGF-6 [2, 3]: 3,283.94 and 2,519.78 | Flt-3 Ligand [2, 3]: 511.67 and 792.98 | Fractalkine [2, 3]: 359.37 and 367.15 | GCP-2 [2, 3]: 451.78 and 362.12 | GDNF [2, 3]: 443.22 and 509.66 | GM-CSF [2, 3]: 1,808.82 and 1,446.82 | I-309 [2, 3]: 318.30 and 288.36 | IFN-gamma [2, 3]: 1,238.97 and 1,435.08 | IGF-I [2, 3]: 254.98 and 187.77 | IGFBP-1 [2, 3]: 227.60 and 155.91 | IGFBP-2 [2, 3]: 42,215.53 and 43,934.33 | IGFBP-4 [2, 3]: 18,988.34 and 13,380.14 | IL-1alpha [2, 3]: 3,999.26 and 3,545.79 | IL-1beta [2, 3]: 316.59 and 278.30 | IL-1ra [2, 3]: 354.23 and 581.75 | IL-2 [2, 3]: 758.10 and 881.84 | IL-3 [2, 3]: 11,345.78 and 12,174.73 | IL-4 [2, 3]: 804.30 and 673.95 | IL-5 [2, 3]: 2,120.27 and 1,713.38 | IL-6 [2, 3]: 9,774.82 and 9,991.93 | IL-10 [2, 3]: 1,625.71 and 1,129.96 | IL-13 [2, 3]: 2,522.42 and 1,807.27 | IL-15 [2, 3]: 2,495.04 and 1,981.62 | IL-16 [2, 3]: 436.38 and 405.71 | LIGHT [2, 3]: 1,346.78 and 1,108.17 | Leptin [2, 3]: 7,238.71 and 4,886.99 | M-CSF [2, 3]: 740.98 and 684.01 | MCP-1 [2, 3]: 2,015.89 and 1,567.53 | MCP-2 [2, 3]: 694.78 and 694.07 | MCP-3 [2, 3]: 701.62 and 583.42 | MCP-4 [2, 3]: 231.02 and 276.62 | MIP-1-delta [2, 3]: 474.02 and 291.71 | MIP-3-alpha [2, 3]: 208.78 and 184.41 | NAP-2 [2, 3]: 371.35 and 343.68 | NT-3 [2, 3]: 571.57 and 427.51 | PARC [2, 3]: 474.02 and 363.80 | PDGF-BB [2, 3]: 2,635.37 and 2,005.09 | RANTES [2, 3]: 682.80 and 855.01 | SCF [2, 3]: 1,394.69 and 2,155.98 | SDF-1 [2, 3]: 326.85 and 616.95 | TGF-beta 1 [2, 3]: 1,827.65 and 1,849.18 | TGF-beta 3 [2, 3]: 294.34 and 343.68 | TNF-alpha [2, 3]: 2,609.70 and 2,167.71 | TNF-beta [2, 3]: 1,701.01 and 1,637.94 | bFGF [2, 3]: 1,226.99 and 1,241.09 | Acrp30 [2, 4]: 601.61 and 690.66 | AgRP [2, 4]: 77.82 and 89.00 | Angiogenin [2, 4]: 619.40 and 750.85 | AxI [2, 4]: 88.59 and 139.03 | BDNF [2, 4]: 763.51 and 951.45 | BLC [2, 4]: 742.24 and 476.36 | BMP-4 [2, 4]: 348.44 and 304.48 | BMP-6 [2, 4]: 571.23 and 641.05 | CK beta 8-1 [2, 4]: 22.48 and 21.54 | CNTF [2, 4]: 1,382.51 and 1,060.82 | EGF [2, 4]: 742.24 and 984.39 | Eotaxin [2, 4]: 301.87 and 253.80 | Eotaxin-3 [2, 4]: 934.12 and 847.56 | Flt-3 Ligand [2, 4]: 857.45 and 795.19 | Fractalkine [2, 4]: 792.02 and 456.51 | GCP-2 [2, 4]: 593.71 and 538.86 | GDNF [2, 4]: 436.75 and 444.68 | GM-CSF [2, 4]: 1,343.17 and 1,161.75 | I-309 [2, 4]: 708.52 and 743.25 | IFN-gamma [2, 4]: 1,202.67 and 1,037.60 | IGFBP-1 [2, 4]: 59.41 and 85.73 | IGFBP-2 [2, 4]: 2,671.90 and 2,414.72 | IGFBP-4 [2, 4]: 4,459.85 and 4,173.19 | IL-1alpha [2, 4]: 1,612.93 and 1,421.89 | IL-1beta [2, 4]: 352.05 and 312.08 | IL-1ra [2, 4]: 302.68 and 198.48 | IL-3 [2, 4]: 2,119.94 and 1,497.48 | IL-4 [2, 4]: 625.42 and 638.94 | IL-5 [2, 4]: 1,245.23 and 1,167.24 | IL-10 [2, 4]: 1,222.75 and 1,096.30 | IL-13 [2, 4]: 1,486.89 and 1,407.96 | IL-15 [2, 4]: 1,677.16 and 1,601.79 | IL-16 [2, 4]: 651.11 and 668.50 | Leptin [2, 4]: 1,234.39 and 1,091.65 | M-CSF [2, 4]: 852.63 and 867.83 | MCP-1 [2, 4]: 1,022.03 and 1,076.03 | MCP-3 [2, 4]: 1,184.61 and 1,255.50 | MCP-4 [2, 4]: 1,380.51 and 1,606.86 | MDC [2, 4]: 269.36 and 280.41 | MIG [2, 4]: 1,113.16 and 1,137.26 | MIP-1-delta [2, 4]: 491.75 and 322.22 | MIP-3-alpha [2, 4]: 1,602.09 and 1,399.93 | NT-3 [2, 4]: 316.73 and 275.76 | PARC [2, 4]: 352.85 and 353.04 | PDGF-BB [2, 4]: 517.84 and 597.56 | RANTES [2, 4]: 724.98 and 637.25 | SCF [2, 4]: 1,152.50 and 1,021.13 | TARC [2, 4]: 372.93 and 343.33 | TGF-beta 1 [2, 4]: 1,426.67 and 1,240.30 | TNF-alpha [2, 4]: 2,851.74 and 1,285.91 | TNF-beta [2, 4]: 1,049.33 and 1,026.62 | bFGF [2, 4]: 11,722.95 and 21,398.52 | Angiogenin, IGFBP-1 and EGF ([2]; cell conditioned media): Noticeable upregulation | proteins including IGFBP-1, TGFbeta-1 and TGFbeta-3 ([2]; cell lysates): upregulated
